PubChem BioAssay AID179 (DTP/NCI, 2004)
Activity calls are given as the source filed them.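 Rule for the calls: active = compounds giving half or more protection of infected cells from virus-caused growth loss, again on retest; inactive = the rest.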

Test system: CEM cells HIV-1 protection, formazan growth assay
Assay: NCI AIDS Antiviral Assay
Conditions: for IC50: measured here: growth of uninfected CEM cells
How it was run: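 Category rules: moderately active means at least 50% protection on retest, and confirmed active means 100% protection reproducibly. The underlying data came from a formazan growth assay in HIV-1-infected CEM cells.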

## COc1ccc2[nH]c(Br)c(CCNC(C)=O)c2c1
  EC50: > 200 µM
  IC50: > 200 µM

## N#Cc1ccc(Sc2ccccc2)cc1C#N
  EC50: > 110 µM
  IC50: > 110 µM

## CCOC(=O)C(=O)C=P(c1ccccc1)(c1ccccc1)c1ccccc1
  EC50: 18.6 µM
  IC50: 35.5 µM

## CCOc1ccccc1NC(=O)C(=O)Cc1nc2ccccc2s1
  outcome: inactive

## c1ccc(-c2nc3nc4ccccc4nc3nc2-c2ccccn2)nc1
  EC50: > 53.7 µM
  IC50: 10.7 µM

## C[n+]1cc(C(O)c2ccc3c(c2)OCO3)c2ccccc2c1 (configuration not stated)
  EC50: > 100 µM
  IC50: 29.5 µM

## CC1=CC(=O)C2(C)CC[C@]3(O)CCCC123 (some centres not stated)
  outcome: inactive

## O=C(O)C1(C(=O)O)CC1
  outcome: inactive

## CSc1nc2c(nc(N)n2C2OC(CO)C(O)C(O)C2O)c(=O)[nH]1 (configuration not stated)
  outcome: inactive

## CCOC(=O)c1[nH]cc(C)c1-c1ccn(-c2ccccc2)c1
  EC50: > 200 µM
  IC50: 45.7 µM

## N=C(N)SCCc1ccncc1
  EC50: > 200 µM
  IC50: 155 µM

## O=C(CNc1ccc(Cl)cc1)Nn1c(-c2ccccc2)nc2ccccc2c1=O
  EC50: > 200 µM
  IC50: 5.13 µM

## C/C(=N/Nc1ccc([N+](=O)[O-])cc1[N+](=O)[O-])c1ccc(Sc2ccc(/C(C)=N/Nc3ccc([N+](=O)[O-])cc3[N+](=O)[O-])cc2)cc1
  EC50: > 50.1 µM
  IC50: > 50.1 µM

## COc1nc2ccc(COc3ccc(C(=O)O)cc3)cc2nc1OC
  EC50: > 200 µM
  IC50: 132 µM

## O=S(=O)(c1ccccc1)N1CC2CC(Br)C(Br)CC21 (configuration not stated)
  EC50: > 45.7 µM
  IC50: > 45.7 µM

## O=C1OC(=O)C2C1C1(c3ccccc3)OC2(c2ccccc2)c2c(Br)c(Br)c(Br)c(Br)c21 (configuration not stated)
  outcome: inactive

## [CH2+][B-]1(C)n2cc(Br)c[n+]2[B-](C)(C)[n+]2cc(Br)cn21
  EC50: > 200 µM
  IC50: 105 µM

## Cn1c(-c2cccs2)cc(-c2cccs2)c1-c1cccs1
  EC50: > 200 µM
  IC50: 33.9 µM

## Cc1cc(N(CCC#N)CCC#N)ccc1/C=N/NC(=O)c1ccccc1
  EC50: > 200 µM
  IC50: 7.41 µM

## O=[N+]([O-])c1cc(/C=N\NS(=O)(=O)c2ccc(Cl)cc2)c(O)c([N+](=O)[O-])c1
  EC50: > 617 µM
  IC50: 34.7 µM

## CCOC(=O)/C(F)=C/c1cccc(F)c1
  EC50: > 170 µM
  IC50: > 170 µM

## COc1ccc(-n2cccc2)cc1
  EC50: > 200 µM
  IC50: > 200 µM

## COc1c2cc(C(C)(C)C)cc1Cc1cccc(c1O)Cc1cc(C(C)(C)C)cc(c1OC)Cc1cccc(c1O)Cc1cc(C(C)(C)C)cc(c1OC)Cc1cccc(c1O)C2
  EC50: > 151 µM
  IC50: > 151 µM

## O=C(O)/C=C\C(=O)NCCCNC(=O)/C=C\C(=O)O
  EC50: > 933 µM
  IC50: > 933 µM

## Cc1ccccc1CC1(Br)CC(C)(C)c2ccccc2C1=O (configuration not stated)
  EC50: > 200 µM
  IC50: 29.5 µM

## CN(C)c1ccc(-c2c(C#N)c(N)[nH]c(=S)c2C#N)cc1
  EC50: > 126 µM
  IC50: 50.1 µM

## CCC[CH2][Sn]1([CH2]CCC)[O]C(=O)c2cc(C)ccc2[O]1
  EC50: > 9.33 µM
  IC50: 3.09 µM

## CCCCN(CCCC)C(=O)C(=O)CC(=O)c1ccc(Br)cc1
  outcome: inactive

## O=C1C=CC2CCC1C2 (configuration not stated)
  outcome: inactive

## O=C1CCC(c2ccc(Cl)cc2)=NN1c1nsc2ccccc12
  EC50: > 39.8 µM
  IC50: > 39.8 µM

## Fc1cccc(F)c1C1SCc2nc3cc4ccccc4cc3n21 (configuration not stated)
  EC50: > 200 µM
  IC50: 24.5 µM

## O=C(NO)c1ccc(C(=O)NO)c(Br)c1
  outcome: inactive

## COc1cccc(CC2Cc3ccccc3CC(=O)N2)c1 (configuration not stated)
  EC50: > 200 µM
  IC50: 38 µM

## O=C(O)c1cccc[c]1[Sb](=[O])([OH])[OH]
  EC50: > 200 µM
  IC50: 87.1 µM

## CC1(C)C=C(/C=N/Nc2ccc(Br)cc2)C(C#N)=C(O)C1(C#N)C#N
  EC50: > 200 µM
  IC50: 28.8 µM

## Cc1cc(S(=O)(=O)Nc2nnc3c4ccccc4cnn23)c(S)cc1Cl
  EC50: 56.2 µM
  IC50: 1170 µM

## CC(=O)N(C(C)=O)c1cc2c3c(c1)CCCN3CCC2
  EC50: > 200 µM
  IC50: 182 µM

## CCCCCCCC(=O)c1c(O)c2ccccc2oc1=O
  EC50: > 200 µM
  IC50: 26.9 µM

## CSc1nc(-c2ccc(Cl)cc2)c(C#N)c(=O)[nH]1
  outcome: inactive

## C[n+]1c2ccccc2n2c3ccccc3c(NCc3ccco3)c(C#N)c21
  EC50: > 20 µM
  IC50: 1.48 µM

## COC(=O)C([C@H]1CC[C@H](OCc2ccccc2)[C@@]1(O)COCc1ccccc1)C(C)(O)CCc1ccccc1 (some centres not stated)
  outcome: inactive

## CC(C)(/C=N/O)/[N+]([O-])=C/c1ccccc1
  EC50: > 200 µM
  IC50: > 200 µM

## Cc1cccc2c1CC(Cc1ccccc1C(=O)O)C2=O (configuration not stated)
  EC50: > 200 µM
  IC50: > 200 µM

## CN(C)C1C(=O)C(C(=O)NCN2CCOB(c3ccccc3)OCC2)=C(O)C2(O)C(O)=C3C(=O)C4C(O)=CC=CC4C(C)(O)C3CC12 (configuration not stated)
  EC50: 31.6 µM
  IC50: 39.8 µM

## C=C(CCCCOCOCCOC)[Si](C)(C)C
  EC50: > 138 µM
  IC50: > 138 µM

## C=CC1=CC2(O[Si](C(C)C)(C(C)C)C(C)C)CCC1C(COCc1ccccc1)C2C(=O)O (configuration not stated)
  EC50: > 28.8 µM
  IC50: 20 µM
